# Laboratory results published in PMC6934184, “Selective DNA-PKcs inhibition extends the therapeutic index of localized radiotherapy and chemotherapy” (The Journal of Clinical Investigation, 2019).
# Target: T1, ROCK2 (Homo sapiens, UniProt O75116)
# T1 construct: purchased Thermo Fisher Scientific (Life Technologies) SelectScreen
# Assay: SelectScreen Z'LYTE
# Assay type: biochemical
# In short: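 SelectScreen broad panel; activity (Z'LYTE, Adapta) plus binding formats. ATP: Km app for CSF1R Z'LYTE; 10 for CAMK1 Adapta. Readout = % per kinase.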
# T1 sequence (O75116 whole entry): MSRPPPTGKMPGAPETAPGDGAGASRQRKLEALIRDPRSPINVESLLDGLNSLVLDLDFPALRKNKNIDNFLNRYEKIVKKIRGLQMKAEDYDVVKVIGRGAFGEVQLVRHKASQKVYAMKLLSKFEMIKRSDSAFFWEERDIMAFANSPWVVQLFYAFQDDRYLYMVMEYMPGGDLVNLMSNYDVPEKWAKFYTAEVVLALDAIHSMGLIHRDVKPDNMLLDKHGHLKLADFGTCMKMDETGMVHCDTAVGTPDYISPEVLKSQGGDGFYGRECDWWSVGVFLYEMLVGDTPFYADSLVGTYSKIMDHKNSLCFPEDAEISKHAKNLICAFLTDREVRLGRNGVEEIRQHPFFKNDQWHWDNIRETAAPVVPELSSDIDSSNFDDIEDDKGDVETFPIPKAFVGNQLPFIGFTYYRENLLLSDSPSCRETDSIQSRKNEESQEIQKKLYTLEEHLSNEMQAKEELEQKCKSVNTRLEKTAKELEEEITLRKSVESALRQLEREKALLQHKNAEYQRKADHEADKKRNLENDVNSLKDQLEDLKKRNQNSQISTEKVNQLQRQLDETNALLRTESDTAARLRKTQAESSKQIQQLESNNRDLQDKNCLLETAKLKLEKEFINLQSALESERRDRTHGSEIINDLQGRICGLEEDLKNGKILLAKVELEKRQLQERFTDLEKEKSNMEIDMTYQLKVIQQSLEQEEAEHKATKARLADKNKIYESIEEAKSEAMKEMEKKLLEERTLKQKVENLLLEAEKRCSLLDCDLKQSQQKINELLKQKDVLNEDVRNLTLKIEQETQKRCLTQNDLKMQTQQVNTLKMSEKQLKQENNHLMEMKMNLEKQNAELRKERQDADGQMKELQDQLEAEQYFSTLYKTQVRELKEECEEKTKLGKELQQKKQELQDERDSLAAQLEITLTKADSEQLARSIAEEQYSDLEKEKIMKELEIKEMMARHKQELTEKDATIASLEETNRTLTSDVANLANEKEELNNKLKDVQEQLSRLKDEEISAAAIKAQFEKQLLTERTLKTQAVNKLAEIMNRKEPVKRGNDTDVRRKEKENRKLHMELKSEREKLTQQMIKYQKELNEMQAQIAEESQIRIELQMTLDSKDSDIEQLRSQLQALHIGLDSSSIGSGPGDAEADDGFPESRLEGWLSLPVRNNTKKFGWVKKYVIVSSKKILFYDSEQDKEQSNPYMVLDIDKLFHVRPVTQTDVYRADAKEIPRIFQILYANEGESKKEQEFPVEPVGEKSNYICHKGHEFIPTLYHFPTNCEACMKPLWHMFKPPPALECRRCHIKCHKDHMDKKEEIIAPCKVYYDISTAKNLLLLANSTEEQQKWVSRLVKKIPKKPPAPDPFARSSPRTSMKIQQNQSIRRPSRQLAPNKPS
structure (smiles),measurement,value
CN(C(=O)CN1CCOCC1)c1ccc2sc3c(-c4cccc5c(=O)cc(N6CC7CCC(C6)O7)oc45)cccc3c2c1 [NU5455],inhibition at 1 µM,-4.1%
